# Data published in patent US8912184B1, “Therapeutic and diagnostic methods” (Alzheimer's Institute of America, Inc., priority 2010, dated 2014).
# Read-outs that look alike come from different tables or passages of the source.
# System: HCT116 cells
# Experiment: Nicotinic Acid Rescue Cytotoxicity Assay, first method: cytotoxicity to HCT116 cells in presence and absence of 10 μM nicotinic acid
# Type: cell-based
# Settings: Homo sapiens, HCT-116, 72 h
# Procedure: Additionally, Nicotinic Acid (NA) rescue of cytotoxicity of Nampt inhibitors was assessed by two distinct methods. In the first method, Nampt1 inhibitor cytotoxicity was evaluated in the presence and absence of exogenous nicotinic acid (NA) at a fixed concentration. […] Twenty four hours after cells were plated, the media was removed and replaced with media containing 10 μM nicotinic acid. Compounds were then immediately added. Cell viability was then assessed at 72 h.
# Using the first of the two assays described above, the 90 compounds shown in Table 5, below, were tested for cytotoxicity towards Naprt1-proficient HCT116 cells, and for the ability of NA to block the observed cytotoxicity (or “rescue” the cells from the cytotoxic activity of the tested compound). The compounds listed are referred to by a unique rescue analysis example number (i.e., R1, R2 . . . R90) that is used as a reference number in Table 4, in which the results of the cytotoxicity and rescue assays are presented.
# [1] = absence of nicotinic acid, read-out: HCT116 72 h cytotoxicity
# [2] = presence of 10 μM nicotinic acid, read-out: HCT116 72 h cytotoxicity with 10 μM Nicotinic Acid
smiles,measurement,setting,value
"O=C(NCc1cccnc1)c1ccc(NCc2ccccc2OC(F)(F)F)cc1 [Example R8, N-(Pyridin-3-ylmethyl)-4-{[2-(trifluoromethoxy)benzyl]amino}benzamide]",IC50,[1],3130 nM
same,IC50,[2],> 10000 nM
"O=C(CN1CCCc2ccccc21)Nc1ccc(C(=O)NCc2cccnc2)cc1 [Example R17, 4-[(3,4-Dihydroquinolin-1(2H)-ylacetyl)amino]-N-(pyridin-3-ylmethyl)benzamide]",IC50,[1],2050 nM
same,IC50,[2],> 50000 nM
"Cc1cc(S(=O)(=O)Nc2ccc(NC(=O)NCc3cccnc3)cc2)c(Cl)cc1Cl [Example R76, 2,4-dichloro-5-methyl-N-(4-{[(pyridin-3-ylmethyl)carbamoyl]amino}phenyl)benzene-sulfonamide]",IC50,[1],1.3 nM
same,IC50,[2],> 5000 nM
"O=C(NCc1ccc(NS(=O)(=O)c2ccccc2-c2ccccc2)cc1)Nc1ccncc1 [Example R65, N-(4-{[(pyridin-4-ylcarbamoyl)amino]methyl}phenyl)biphenyl-2-sulfonamide]",IC50,[1],0.5 nM
same,IC50,[2],> 1000 nM
"O=C(NCc1cccnc1)c1ccc(NCc2ccccc2-c2cccc(Cl)c2)cc1 [Example R30, 4-{[(3′-Chlorobiphenyl-2-yl)methyl]amino}-N-(pyridin-3-ylmethyl)benzamide]",IC50,[1],1350 nM
same,IC50,[2],29000 nM
"C#CCN(Cc1ccc2nc(C)n(C)c(=O)c2c1)c1ccc(C(=O)NCc2cccnc2)cc1 [Example R47, 4-{[(2,3-Dimethyl-4-oxo-3,4-dihydroquinazolin-6-yl)methyl](prop-2-yn-1-yl)amino}-N-(pyridin-3-ylmethyl)benzamide]",IC50,[1],33.5 nM
same,IC50,[2],> 10000 nM
"O=C(NCc1cccnc1)Nc1ccc(COc2ccccc2-c2ccncc2)cc1 [Example R81, 1-(Pyridin-3-ylmethyl)-3-(4-{[2-(pyridin-4-yl)phenoxy]methyl}phenyl)urea]",IC50,[1],5.4 nM
same,IC50,[2],> 5000 nM
"O=C(NCc1cccnc1)Nc1ccc(NS(=O)(=O)c2sccc2Br)cc1 [Example R71, 3-bromo-N-(4-{[(pyridin-3-ylmethyl)carbamoyl]amino}phenyl) thiophene-2-sulfonamide]",IC50,[1],13.2 nM
same,IC50,[2],> 5000 nM
"C/C=C/CN(Cc1ccccc1Cl)c1ccc(C(=O)NCc2cccnc2)cc1 [Example R43, 4-[(2E)-But-2-en-1-yl(2-chlorobenzyl)amino]-N-(pyridin-3-ylmethyl)benzamide]",IC50,[1],98.6 nM
same,IC50,[2],> 10000 nM
"O=C(Nc1ccc(C(=O)NCc2cccnc2)cc1)Nc1ccccc1-c1ccccc1 [Example R11, 4-[(Biphenyl-2-ylcarbamoyl)amino]-N-(pyridin-3-ylmethyl)benzamide]",IC50,[1],424 nM
same,IC50,[2],> 50000 nM
"N#C/N=C(/NCc1ccc(NS(=O)(=O)c2ccccc2-c2ccccc2)cc1)Nc1ccncc1 [Example R59, N-(4-{[N″-cyano-N′-(pyridin-4-yl)carbamimidamido]methyl}phenyl) biphenyl-2-sulfonamide]",IC50,[1],0.6 nM
same,IC50,[2],> 5000 nM
"O=C(NCCCCCCOc1ccc(Cl)cc1)Nc1ccncc1 [Example R79, 1-[6-(4-Chlorophenoxy)hexyl]-3-pyridin-4-ylurea]",IC50,[1],88.9 nM
same,IC50,[2],> 5000 nM
"O=C(NCc1cccnc1)Nc1ccc(NS(=O)(=O)c2ccc(F)cc2-c2ccccc2)cc1 [Example R68, 5-fluoro-N-(4-{[(pyridin-3-ylmethyl)carbamoyl]amino}phenyl)biphenyl-2-sulfonamide]",IC50,[1],2.1 nM
same,IC50,[2],> 5000 nM
"O=C(NCc1cccnc1)Nc1ccc(NS(=O)(=O)c2ccccc2Br)cc1F [Example R56, 2-bromo-N-(3-fluoro-4-{[(pyridin-3-ylmethyl)carbamoyl]amino}phenyl)benzene-sulfonamide]",IC50,[1],50 nM
same,IC50,[2],> 1000 nM
"O=C(NCc1cccnc1)c1ccc(NCc2ccccc2-c2cccc(C(F)(F)F)c2)cc1 [Example R29, N-(Pyridin-3-ylmethyl)-4-({[3′-(trifluoromethyl)biphenyl-2-yl]methyl}amino)benzamide]",IC50,[1],10300 nM
same,IC50,[2],25000 nM
"O=C(NCc1cccnc1)Nc1ccc(NS(=O)(=O)c2cc(C(F)(F)F)ccc2F)cc1 [Example R72, 2-fluoro-N-(4-{[(pyridin-3-ylmethyl)carbamoyl]amino}phenyl)-5-(trifluoromethyl)benzenesulfonamide]",IC50,[1],15 nM
same,IC50,[2],> 5000 nM
"O=C(NCCCCCOc1ccccc1-c1ccccc1)NCc1cccnc1 [Example R85, 1-[5-(Biphenyl-2-yloxy)pentyl]-3-(pyridin-3-ylmethyl)urea]",IC50,[1],1.3 nM
same,IC50,[2],> 5000 nM
"O=C(NCc1cccnc1)Nc1ccc(COc2ccccc2-c2ccccc2)cc1 [Example R64, 1-{4-[(Biphenyl-2-yloxy)methyl]phenyl}-3-(pyridin-3-ylmethyl)urea]",IC50,[1],0.2 nM
same,IC50,[2],> 10000 nM
"N#C/N=C(\NCCCCCCOc1ccc(Cl)cc1)Nc1ccnc(Cl)c1 [Example R37, 1-[6-(4-Chlorophenoxy)hexyl]-2-(2-chloropyridin-4-yl)-3-cyanoguanidine]",IC50,[1],168 nM
same,IC50,[2],5000 nM
"O=C(NCc1ccc(NS(=O)(=O)c2cc(C(F)(F)F)ccc2Br)cc1)Nc1ccncc1 [Example R73, 2-bromo-N-(4-{[(pyridin-4-ylcarbamoyl)amino]methyl}phenyl)-5-(trifluoromethyl)benzenesulfonamide]",IC50,[1],1 nM
same,IC50,[2],> 5000 nM
"O=C(NCc1cccnc1)Nc1ccc(C2(Oc3ccccc3-c3ccccc3)CC2)cc1 [Example R87, 1-{4-[1-(Biphenyl-2-yloxy)cyclopropyl]phenyl}-3-(pyridin-3-ylmethyl)urea]",IC50,[1],1.1 nM
same,IC50,[2],3000 nM
"N#C/N=C(\NCCCNS(=O)(=O)c1ccccc1-c1ccccc1)Nc1ccncc1 [Example R66, N-{3-[N″-cyano-N′-(pyridin-4-yl)carbamimidamido]propyl}biphenyl-2-sulfonamide]",IC50,[1],1.3 nM
same,IC50,[2],5000 nM
"CC(C)=CCN(Cc1cc2c(=O)n(C)cnc2cc1Cl)c1ccc(C(=O)NCc2cccnc2)cc1 [Example R52, 4-{[(7-Chloro-3-methyl-4-oxo-3,4-dihydroquinazolin-6-yl)methyl](3-methylbut-2-en-1-yl)amino}-N-(pyridin-3-ylmethyl)benzamide]",IC50,[1],7.3 nM
same,IC50,[2],> 10000 nM
"Cc1ccccc1-c1ccccc1CNc1ccc(C(=O)NCc2cccnc2)cc1 [Example R28, 4-{[(2′-Methylbiphenyl-2-yl)methyl]amino}-N-(pyridin-3-ylmethyl)benzamide]",IC50,[1],335 nM
same,IC50,[2],25000 nM
"CCn1cc(-c2ccccc2S(=O)(=O)Nc2ccc(NC(=O)NCc3cccnc3)cc2)cn1 [Example R89, 2-(1-Ethyl-1H-pyrazol-4-yl)-N-(4-{[(pyridin-3-ylmethyl)carbamoyl]amino}phenyl)benzene-sulfonamide]",IC50,[1],34.2 nM
same,IC50,[2],> 5000 nM
"O=C(NCc1cccnc1)Nc1ccc(NS(=O)(=O)c2ccccc2-c2ccsc2)cc1 [Example R63, N-(4-{[(pyridin-3-ylmethyl)carbamoyl]amino}phenyl)-2-(thiophen-3-yl)benzenesulfonamide]",IC50,[1],1.6 nM
same,IC50,[2],> 10000 nM
"C#CCN(Cc1ccccc1-c1ccccc1)c1ccc(C(=O)NCc2cccnc2)cc1 [Example R9, 4-[(Biphenyl-2-ylmethyl)(prop-2-yn-1-yl)amino]-N-(pyridin-3-ylmethyl)benzamide]",IC50,[1],41.5 nM
same,IC50,[2],12000 nM
"N#Cc1ccc(NC(=S)NCCCCCCOc2ccc(Cl)cc2)cc1 [Example R35, 1-[6-(4-Chlorophenoxy)hexyl]-3-(4-cyanophenyl)thiourea]",IC50,[1],1530 nM
same,IC50,[2],2000 nM
"O=C(NCc1cccnc1)Nc1ccc(NS(=O)(=O)c2ccc3ccccc3c2)cc1 [Example R46, N-(4-{[(Pyridin-3-ylmethyl)carbamoyl]amino}phenyl) naphthalene-2-sulfonamide]",IC50,[1],64.8 nM
same,IC50,[2],> 10000 nM
"O=C(NCc1cccnc1)Nc1ccc(COc2ccccc2-c2cccc(F)c2)cc1 [Example R82, 1-(4-{[(3′-Fluorobiphenyl-2-yl)oxy]methyl}phenyl)-3-(pyridin-3-ylmethyl)urea]",IC50,[1],1.9 nM
same,IC50,[2],> 5000 nM
"O=C(CN1CCc2ccccc21)Nc1ccc(C(=O)NCc2cccnc2)cc1 [Example R16, 4-[(2,3-Dihydro-1H-indol-1-ylacetyl)amino]-N-(pyridin-3-ylmethyl)benzamide]",IC50,[1],3290 nM
same,IC50,[2],> 50000 nM
"O=C(NCc1cccnc1)c1ccc(OCc2ccccc2-c2ccccc2)cc1 [Example R23, 4-(Biphenyl-2-ylmethoxy)-N-(pyridin-3-ylmethyl)benzamide]",IC50,[1],539 nM
same,IC50,[2],> 50000 nM
"CCn1cc(-c2ccccc2OCc2ccc(NC(=O)NCc3cccnc3)cc2)cn1 [Example R84, 1-(4-{[2-(1-Ethyl-1H-pyrazol-4-yl)phenoxy]methyl}phenyl)-3-(pyridin-3-ylmethyl)urea]",IC50,[1],10.8 nM
same,IC50,[2],> 5000 nM
"O=C(NCc1cccnc1)Nc1ccc(NS(=O)(=O)c2ccc(F)cc2Br)cc1 [Example R62, 2-bromo-4-fluoro-N-(4-{[(pyridin-3-ylmethyl)carbamoyl]amino}phenyl)benzene-sulfonamide]",IC50,[1],12.9 nM
same,IC50,[2],> 1000 nM
"N#C/N=C(/NCCCCNC(=O)COc1ccccc1-c1ccccc1)Nc1ccncc1 [Example R78, 2-(Biphenyl-2-yloxy)-N-(4-{[(Z)-(cyanoamino)(pyridin-4-ylamino)methylidene]amino}butyl)acetamide]",IC50,[1],0.5 nM
same,IC50,[2],> 5000 nM
